The text below walks through data of article PMC9781444, “Pyridyl Methylsulfinyl Benzimidazole Derivatives as Promising Agents against Giardia lamblia and Trichomonas vaginalis” (Molecules, 2022).

The target in data set [1] is T1, TvG6PD::6PGL (Trichomonas vaginalis, UniProt A2DBT5). The settings on record: cited from earlier work.
For data set [2], the target named is T2, GlG6PD::6PGL (Giardia intestinalis, UniProt A8BWM5). Briefly: GlG6PD::6PGL enzyme inactivation assay. Format: biochemical, G. lamblia. The settings on record: for Inhibition (%) at 400 µM of GlG6PD::6PGL: 400 µM compound, 0.2 mg/mL enzyme, 37 °C, 2 h, relative to enzyme without inhibitor; for inhibition at 400 µM: read-out: Inhibition (%) at 400 µM of GlG6PD::6PGL; for kinact/KI: read-out: second-order inactivation rate constant k2, GlG6PD::6PGL. The protocol:
(§1) The G6PD domain activity of the recombinant proteins was spectrophotometrically measured at 25 °C by monitoring the reduction in NADP^+ at 340 nm. The assay was performed with 1 mL of standard reaction mixture containing 0.1 M Tris-HCl, 0.01 M MgCl2, 1 mM NADP^+, and 1 mM glucose-6-phosphate (G6P) at pH 8.3. The reaction was initiated with the addition of 1 µg/mL fused GlG6PD::6PGL or TvG6PD::6PGL enzymes.
(§2) Inactivation assays were performed with the compounds against GlG6PD::6PGL and TvG6PD::6PGL. Thus, all the compounds were activate immediately before the experiments as previously reported and diluted using dimethyl sulfoxide (DMSO) as a solvent. For the assay, 0.2 mg/mL of the enzyme was incubated with the compounds at a concentration of 400 µM at 37 °C for 2 h. Following incubation, the activity was measured with a standard reaction mixture. Only the compounds that reduced the activity of the enzyme by more than 50% were used in the subsequent experiments.
(§3) Then, aliquots from these incubations were withdrawn, and the residual activity was determined under standard conditions. The results are reported as the percentage of residual activity (using the activity of each enzyme incubated without any compound as 100% activity) versus the compound’s concentration.
(§4) The second-order rate constants of inactivation for each one of the compounds were calculated by obtaining the pseudo-first-order rate constant (k1) values. Pseudo-first-order inactivation rate constants (k1) were obtained at four or five fixed concentrations for each of the compounds. At the indicated times, aliquots were withdrawn to determine residual activity. Then, residual activity data were fitted using the monoexponential decay equation, as previously reported. The previously obtained k1 values were replotted against the concentrations of each compound, and the slope created by these plots corresponds to the second-order inactivation constant k2 (M^−1·s^−1).

Data set [3] addresses T1, TvG6PD::6PGL. As to the kind of experiment: TvG6PD::6PGL enzyme inactivation assay. Format: biochemical, T. vaginalis. The settings on record: for inhibition at 400 µM: read-out: Inhibition (%) at 400 µM of TvG6PD::6PGL, 400 µM compound, 0.2 mg/mL enzyme, 37 °C, 2 h, relative to enzyme without inhibitor; for kinact/KI: read-out: second-order inactivation rate constant k2, TvG6PD::6PGL, slope of k1 versus compound concentration. The protocol:
as §1, §2, §3, §4

The subject of data set [4] is G. lamblia. Briefly: In vitro antigiardial activity. Format: cell-based. The settings on record: for selectivity index (SI), G. lamblia: Caco-2 CC50 relative to G. lamblia IC50.
In a further data set the test system is GlTIM. On the set-up: method as in PMID 32882836. The settings on record: cited from earlier work; for IC50: read-out: IC50 TIM enzyme from G. lamblia.
For data set [5], the system named is G. lamblia. The arrangement: method as in PMID 32882836. The settings on record: previous study; cited from earlier work.
In data set [6] the target is T2, GlG6PD::6PGL. Briefly: Intrinsic fluorescence of GlG6PD::6PGL with compounds. The arrangement: species or system G. lamblia. The settings on record: compound at IC50 concentration, 2 h, 37 °C; for maximum intrinsic fluorescence intensity of GlG6PD::6PGL: control 874 a.u. The protocol:
(§5) The effect of the compounds on the tertiary structure (3D) of the GlG6PD::6PGL and TvG6PD::6PGL proteins was evaluated by monitoring the changes in the intrinsic and extrinsic fluorescence using a Perkin-Elmer LS-55 spectrofluorometer (Perkin-Elmer, Wellesley, MA, USA). […] Following incubation, the proteins were excited at 280 nm, and we recorded the emission spectra from 310 to 500 nm with a scan speed of 150 nm/min using excitation and emission slits of 4 and 8 nm, respectively. The spectra of the blanks (buffer phosphate containing each of the compounds) were subtracted from all the obtained spectra that contained the protein, and the spectrum of the enzyme without the compound was used as control. The final spectrum for each compound was the average of five scans.

Data set [7] has as its system T. vaginalis trophozoites. As to the kind of experiment: Anti-T. vaginalis assay (trophozoite viability, trypan blue). Format: cell-based. The settings on record: for reduction of T. vaginalis trophozoite viability at 6 µM / reduction of T. vaginalis trophozoite viability at 100 μM / IC50: 24 h; for reduction of T. vaginalis trophozoite viability at 100 μM: relative to negative control; for selectivity index (SI), T. vaginalis: Caco-2 CC50 relative to T. vaginalis IC50; for IC50: Trichomonas vaginalis, trophozoites, 37 °C. The protocol: The isolate T. vaginalis, Donne ATCC 30236 was axenically grown in trypticase–yeast extract–maltose (TYM) medium (pH 6.0), supplemented with 10% sterile horse serum (previously inactivated at 56 °C for 30 min), and incubated at 37 °C under microaerobic conditions. The trophozoites were axenically maintained, and a trypan blue (0.4%) exclusion assay was performed to ensure that the minimum viability of 95% and logarithmic growth phase were achieved before proceeding to the antiparasitic assay.
Drug susceptibility assays were performed to analyze the trichomonacidal potential of O2N-BZM7 and O2N-BZM9 compounds against T. vaginalis, as previously described. The compounds were diluted in dimethylsulfoxide (DMSO) as a vehicle for solubilization. […] Trophozoites were adjusted to an initial density of 2.6 × 10^5 trophozoites/mL of TYM medium. Then, 1.5 mL tubes were seeded with […] of T. vaginalis trophozoites/tubes (2.6 × 10^5 trophozoites/mL), O2N-BZM7 and O2N-BZM9 were added, and tubes were incubated at 37 °C with 5% CO2 for 24 h. After incubation, trophozoites were counted with trypan blue (0.4%) (1:1, v/v) on a Neubauer chamber to determine the trophozoites’ motility, morphology, and viability. Three controls were used in each assay: a negative control containing only trophozoites, a 0.06% DMSO control, and a positive control containing MTZ at 100 μM (Sigma-Aldrich, St. Louis, MO, USA). The IC50 was calculated using the GraphPad Prism 8.0 software Inc. version 8.0.2 (263) (San Diego, CA, USA).

The target of data set [8] is T2, GlG6PD::6PGL. As to the kind of experiment: Circular dichroism of GlG6PD::6PGL with compounds. The arrangement: species or system G. lamblia. The settings on record: compound at IC50 concentration, 2 h, 37 °C, protein 0.5 mg/mL. The protocol: One control containing only enzyme was used in each assay. Then, the proteins were loaded in a quartz cell with a 0.1 cm path length, and spectral scans were recorded at 25 °C in ultraviolet circular dichroism (UV-CD) ranging from 200 to 260 nm. The spectra of the blanks (buffer P solution containing each of the compounds) were subtracted from all the obtained spectra that contained the protein. All the CD data were reported as molar ellipticity. The experiments were performed in triplicate.
On the technique in general: Circular dichroism is the unequal absorption of left and right circularly polarised light.

Data set [9] concerns the target T1, TvG6PD::6PGL. As to the kind of experiment: Intrinsic fluorescence of TvG6PD::6PGL with compounds. On the set-up: species or system T. vaginalis. The settings on record: compound at IC50 concentration, 2 h, 37 °C; native protein 673 a.u. The protocol: as §5
The test system of the next data set is Caco-2 cells. The settings on record: read-out: Caco-2 CC50, metronidazole; cited from earlier work.

By IC50 is commonly meant the concentration that inhibits the measured activity by half. One may read the CC50 as the concentration giving 50% cytotoxicity.

The structures appear in SMILES notation. Like-named read-outs stand apart in the source and are kept apart here. A value given as a limit tells only on which side of the number the result lay.

T2 sequence (A8BWM5 entry or part of it): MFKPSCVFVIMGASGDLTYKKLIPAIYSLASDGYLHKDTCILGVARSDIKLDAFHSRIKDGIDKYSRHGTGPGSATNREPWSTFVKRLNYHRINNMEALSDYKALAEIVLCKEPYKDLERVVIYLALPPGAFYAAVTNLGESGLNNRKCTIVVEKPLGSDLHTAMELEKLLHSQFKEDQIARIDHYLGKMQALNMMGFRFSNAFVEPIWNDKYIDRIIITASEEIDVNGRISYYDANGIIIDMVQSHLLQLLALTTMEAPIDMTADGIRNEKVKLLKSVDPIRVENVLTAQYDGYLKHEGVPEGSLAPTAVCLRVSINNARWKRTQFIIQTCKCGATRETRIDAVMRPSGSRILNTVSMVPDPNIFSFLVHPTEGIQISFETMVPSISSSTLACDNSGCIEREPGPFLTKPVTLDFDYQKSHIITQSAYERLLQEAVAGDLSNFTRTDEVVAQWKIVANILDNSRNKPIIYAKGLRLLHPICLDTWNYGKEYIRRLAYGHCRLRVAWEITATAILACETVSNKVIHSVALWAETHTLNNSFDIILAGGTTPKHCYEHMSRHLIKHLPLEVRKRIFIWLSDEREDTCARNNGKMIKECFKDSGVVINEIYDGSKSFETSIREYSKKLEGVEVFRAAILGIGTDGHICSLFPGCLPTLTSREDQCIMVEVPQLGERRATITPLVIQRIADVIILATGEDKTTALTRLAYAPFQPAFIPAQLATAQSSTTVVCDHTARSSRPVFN
T1 sequence (A2DBT5 entry or part of it): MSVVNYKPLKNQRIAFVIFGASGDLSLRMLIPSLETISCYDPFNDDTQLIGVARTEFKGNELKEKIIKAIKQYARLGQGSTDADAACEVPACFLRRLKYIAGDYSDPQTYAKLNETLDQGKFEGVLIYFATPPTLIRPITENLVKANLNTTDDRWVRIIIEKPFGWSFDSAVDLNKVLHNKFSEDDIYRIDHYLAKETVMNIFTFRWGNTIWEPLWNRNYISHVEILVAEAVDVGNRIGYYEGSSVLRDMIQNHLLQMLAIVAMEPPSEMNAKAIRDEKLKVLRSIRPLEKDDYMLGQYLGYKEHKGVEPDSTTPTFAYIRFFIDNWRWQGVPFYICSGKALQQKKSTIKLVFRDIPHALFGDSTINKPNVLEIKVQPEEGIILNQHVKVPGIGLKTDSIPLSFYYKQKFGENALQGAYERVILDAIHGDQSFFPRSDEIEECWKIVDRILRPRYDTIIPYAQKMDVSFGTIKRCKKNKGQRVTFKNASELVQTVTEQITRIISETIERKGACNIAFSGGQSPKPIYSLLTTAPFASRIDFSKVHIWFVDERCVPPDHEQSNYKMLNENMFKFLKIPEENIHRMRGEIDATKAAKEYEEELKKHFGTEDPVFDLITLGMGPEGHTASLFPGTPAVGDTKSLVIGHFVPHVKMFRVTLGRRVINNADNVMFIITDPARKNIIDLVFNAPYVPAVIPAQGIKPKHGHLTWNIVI

On to `O=C(Nc1ccc(Cl)cc1)Nc1ncc([N+](=O)[O-])s1` [CNZ-3], for which the “k2 for TvG6PD::6PGL protein, in-house library compounds” value on TvG6PD::6PGL [1] was 0.66 M⁻¹ s⁻¹.
Turning to `Cc1c(OCC(F)(F)F)ccnc1C[S+]([O-])c1nc2ccc(N)cc2[nH]1` (stereo not shown) [Compound H2N-BZM6, 2-{[3-methyl-4-(2,2,2-trifluoroethoxy)pyridin-2-yl]methanesulfinyl}-1H-benzimidazol-6-amine], at GlG6PD::6PGL [2], the “Inhibition (%) at 400 µM of GlG6PD::6PGL” value is reported as “complete activity of the GlG6PD::6PGL enzyme was eradicated” and the inhibition at 400 µM came out at 100 ± 5%. The inhibition at 400 µM at TvG6PD::6PGL [3] amounted to 12 ± 5%.
As for `O=[N+]([O-])c1ccc2nc([S+]([O-])Cc3ccccn3)[nH]c2c1` (stereo not shown) [Compound O2N-BZM7, 6-nitro-2-[(pyridin-2-yl)methanesulfinyl]-1H-benzimidazole], the “selectivity index (SI), G. lamblia” value in the data set on G. lamblia [4] is on record as 45. Also, at GlG6PD::6PGL [2], the “Inhibition (%) at 400 µM of GlG6PD::6PGL” value was “complete activity of the GlG6PD::6PGL enzyme was eradicated”, the inhibition at 400 µM worked out at 100 ± 5% and the kinact/KI is 1.9 M⁻¹ s⁻¹. Besides, in the data set with GlTIM, the “k2 for inactivation of GlTIM enzyme” value is 3.2 M⁻¹ s⁻¹ and the IC50 is 12 µM. Moreover, in the data set with G. lamblia [5], the IC50 was 14 µM. In addition, at GlG6PD::6PGL [6], the “reduction of intrinsic fluorescence of GlG6PD::6PGL compared to control” value was 62% and the “maximum intrinsic fluorescence intensity of GlG6PD::6PGL” value came out at 329 a.u. In data set [7], the “reduction of T. vaginalis trophozoite viability at 6 µM” value was determined as 52%; the “reduction of T. vaginalis trophozoite viability at 100 μM” value is given as 100%; the “selectivity index (SI), T. vaginalis” value is reported as 106; the IC50 stood at 6 µM. Moreover, the “change of secondary structure (CD spectra) of GlG6PD::6PGL” value at GlG6PD::6PGL [8] was “did not induce alterations of the secondary structure”. In addition, on TvG6PD::6PGL [9], the “maximal intrinsic fluorescence intensity of TvG6PD::6PGL” value was 415 a.u. For the same compound, at TvG6PD::6PGL [3], the kinact/KI came out at 0.85 M⁻¹ s⁻¹.
For the compound `Cc1c(OCC(F)(F)F)ccnc1C[S+]([O-])c1nc2ccc([N+](=O)[O-])cc2[nH]1` (stereo not shown) [Compound O2N-BZM9, 2-{[3-methyl-4-(2,2,2-trifluoroethoxy)pyridin-2-yl]methanesulfinyl}-6-nitro-1H-benzimidazole], the “selectivity index (SI), G. lamblia” value with G. lamblia [4] is reported as 39. Besides, on GlG6PD::6PGL [2], the IC50 worked out at 15 µM, the “Inhibition (%) at 400 µM of GlG6PD::6PGL” value is “complete activity of the GlG6PD::6PGL enzyme was eradicated”, the inhibition at 400 µM turned out to be 100 ± 5% and the kinact/KI worked out at 6.1 M⁻¹ s⁻¹. Further, in the data set on GlTIM, the “k2 for inactivation of GlTIM enzyme” value was 2.8 M⁻¹ s⁻¹ and the IC50 was 20 µM. For the same compound, the IC50 in the data set with G. lamblia [5] is 17 µM. On GlG6PD::6PGL [6], the “reduction of intrinsic fluorescence of GlG6PD::6PGL compared to control” value was found to be 62% and the “maximum intrinsic fluorescence intensity of GlG6PD::6PGL” value worked out at 329 a.u. Moreover, in data set [7], the “reduction of T. vaginalis trophozoite viability at 6 µM” value is on record as 52%; the “reduction of T. vaginalis trophozoite viability at 100 μM” value was determined as 100%; the “selectivity index (SI), T. vaginalis” value is on record as 160; half-maximal inhibition (IC50) required 4 µM. For the same compound, the “change of secondary structure (CD spectra) of GlG6PD::6PGL” value at GlG6PD::6PGL [8] is reported as “did not induce alterations of the secondary structure”. Further, the “maximal intrinsic fluorescence intensity of TvG6PD::6PGL” value on TvG6PD::6PGL [9] is listed as 102 a.u. Moreover, at TvG6PD::6PGL [3], the inhibition at 400 µM was more than 70% and the kinact/KI was determined as 1.62 M⁻¹ s⁻¹.
For `[O-][S+](Cc1ccccn1)c1nc2ccccc2[nH]1` (stereo not shown) [H-BZM1, 2-[(pyridin-2-yl)methanesulfinyl]-1H-benzimidazole], the inhibition at 400 µM on GlG6PD::6PGL [2] is 62 ± 5%; at TvG6PD::6PGL [3], 7 ± 5%.
Regarding `COc1c(C)cnc(C[S+]([O-])c2nc3ccccc3[nH]2)c1C` (stereo not shown) [H-BZM2, 2-[(4-methoxy-3,5-dimethylpyridin-2-yl)methanesulfinyl]-1H-benzimidazole], at GlG6PD::6PGL [2], the IC50 was determined as 24 µM, the “Inhibition (%) at 400 µM of GlG6PD::6PGL” value is reported as “complete activity of the GlG6PD::6PGL enzyme was eradicated”, the inhibition at 400 µM came out at 100 ± 5% and the kinact/KI is 3.3 M⁻¹ s⁻¹. Besides, the IC50 with GlTIM is 37 µM. Besides, the inhibition at 400 µM on TvG6PD::6PGL [3] amounted to 47 ± 5%.
Turning to `O=C(COc1ccc(/C=C2\SC(=O)NC2=O)cc1)NC1CCN(Cc2ccccc2)CC1` [MCC-7], on TvG6PD::6PGL [1], the “k2 for TvG6PD::6PGL protein, in-house library compounds” value is 0.26 M⁻¹ s⁻¹.
For the compound `Cc1ncc([N+](=O)[O-])n1CCO` [Metronidazole, reference compound], the “selectivity index (SI), G. lamblia” value with G. lamblia [4] worked out at 3.9. In addition, the IC50 turned out to be 4.8 µM in the data set on G. lamblia [4] (Giardia duodenalis, no reference given, read-out: G. lamblia IC50, metronidazole positive control) and 12 µM in data set [7]. Besides, the “selectivity index (SI), T. vaginalis” value in data set [7] was 1.6. Moreover, in the data set with Caco-2 cells, the CC50 was 19 µM.
